These results are taken from patent US8933035B2, “Transglutaminase-activating peptide and cosmetic or pharmaceutical composition containing same” (ISP Investments Inc., priority 2009, dated 2015).

The subject of test [1] is TG1. Kind of test: immunolabelling of epidermal differentiation marker TG1. In kind it is cell-based, human. The settings on record: 0.5 ppm, 24 hours; cultured NHKs and skin biopsies. From the text:
(§1) The objective of this study was to determine the influence of peptide SEQ ID NO: 5 on epidermal differentiation. To this end, the expression of the main markers of epidermal differentiation, expressed specifically in the keratinocytes in the suprabasal layers, were studied. The tested markers are transglutaminase 1, pankeratins, filaggrin, involucrin and loricrin. On the other hand, filaggrin, involucrin and loricrin are precursors of the cornified envelope and of transglutaminase substrates.
(§2) Cultured NHKs were treated with a 1% solution of a mother solution containing 50 ppm of peptide SEQ ID NO: 5 for 24 hours. The cells were then washed and fixed with 3.7% paraformaldehyde for 10 minutes. After unmasking of specific sites, the cells were incubated in the presence of a specific antibody directed against TG1 (Clinisciences BT-621, mouse monoclonal), or against loricrin (ABCAM® ab24722 antibody, rabbit polyclonal), or involucrin (NOVOCASTRA® NCL-INV antibody, mouse monoclonal, clone SY5), then incubated in the presence of a suitable secondary antibody coupled to a fluorescent marker. For easier observation, the rings of the cells can be counter-stained by DAPI (4′,6′ di amidine-2-phenyl indole), a blue fluorescent molecule capable of binding strongly to DNA). […]

In test [2] the test system is involucrin. Kind of test: immunolabelling of epidermal differentiation marker involucrin. The settings on record: 0.5 ppm, 24 hours; cultured NHKs and skin biopsies. In kind it is cell-based, human.
Source text: as §1, §2

Test [3] concerns biopsies of human skin. Kind of test: epidermal differentiation, morphology of skin sections ex vivo. In kind it is cell-based. The settings on record: 0.5 ppm topically, 24 hours. On the procedure: (§3) Biopsies of human skin were placed in culture at the air/liquid interface. A 1% solution of a mother solution containing 50 ppm of peptide SEQ ID NO: 5 was applied topically over 24 hours. The biopsies were then enclosed in paraffin and histological sections 3 μm thick were made. The slides were deparaffined, hydrated, then immunolabelled by an antibody directed against TG1 (Clinisciences BT-621, mouse monoclonal) or cyto-pankeratins (NOVOCASTRA® NCL-CK10 antibody, mouse monoclonal), or loricrin (ABCAM® ab24722 antibody, rabbit polyclonal), or involucrin (NOVOCASTRA® NCL-INV antibody, clone SY5, mouse monoclonal) or filaggrin (Tebu Santa Cruz sc-58761, mouse monoclonal). For easier observation, the rings of the cells can be counter-stained by DAPI (4′,6′ di amidine-2-phenyl indole, a blue fluorescent molecule capable of binding strongly to DNA). A suitable secondary antibody coupled to a fluorescent marker was then used. After mounting in a medium ad hoc, the slides were observed under epifluorescence microscope (ECLIPSE® E 80i microscope by Nikon Corporation).

A further test has as its system filaggrin. Put plainly: immunolabelling of epidermal differentiation marker filaggrin. Format: cell-based, human. The settings on record: 0.5 ppm, 24 hours; labelled in skin biopsies.
Source text: as §1
as §3, with “A suitable secondary antibody coupled to a fluorescent marker was then used. After mounting in a medium ad hoc, the slides were observed under epifluorescence microscope (ECLIPSE® E 80i microscope by Nikon Corporation).” left out

In test [4] the test system is biopsies of human skin. Put plainly: study of epidermal regeneration, histology of skin biopsies. In kind it is cell-based. The settings on record: 1% of 50 ppm mother solution topically, 24 hours. On the procedure:
Biopsies of human skin were placed in culture at the air/liquid interface. A 1% solution of a mother solution containing 50 ppm of peptide SEQ ID NO: 5 was applied topically, then the samples were incubated for 24 hours. The skin biopsies were then enclosed in paraffin and histological sections 3 μm thick were made. The sections were deposited on Superfrost Plus slides (Menzel Glaser, Thermo Scientific), then deparaffined in xylene and rehydrated in a series of alcohol-water solutions. The sections were then stained by 50% haematoxylin for 3 minutes, rinsed, then stained with 60% eosin for 3 minutes and rinsed in water. The sections were then dehydrated, mounted in Eukitt and examined by optical microscopy.

Test [5] concerns loricrin. Put plainly: immunolabelling of epidermal differentiation marker loricrin. The settings on record: 0.5 ppm, 24 hours; cultured NHKs and skin biopsies. In kind it is cell-based, human.
Source text: as §1, §2

In test [6] the test system is loricrin. Put plainly: immunoblot of loricrin in cultured NHKs. Format: cell-based, human. Particulars: 1% of 50 ppm mother solution, 24 hours. On the procedure: (§4) Cultured NHKs were treated with a 1% solution of a mother solution containing 50 ppm of peptide SEQ ID NO: 5 for 24 hours. The cells were then rinsed and detached from the support by scraping in a RIPA buffer in the presence of a cocktail of protease inhibitors (Thermo Scientific, Rockford, USA). The lysed cells were centrifuged at 4° C. at 10,000 rpm for 20 minutes and the supernatants were collected. The samples were then standardised by assaying of the proteins by BCA kit (Pierce, France). The samples were mixed, then subjected to electrophoresis on NUPAGE® 3-8% tris-acetate gel in a NuPAGE NUPAGE® tris-acetate migration buffer, then blotted on a membrane of nitrocellulose by means of a blotting device (Invitrogen, Paisley, UK). The membranes were saturated in 5 TBS milk for 2 hours at ambient temperature, then incubated at 4° C. overnight with a primary antibody directed against TG1 (Clinisciences BT-621, monoclonal mouse) or against involucrin (NOVOCASTRA®NCL-INV antibody, clone SY5, mouse monoclonal) or against loricrin (ABCAM® ab24722 antibody, rabbit polyclonal). After washing by 0.05% TBS-Tween buffer, the membrane was incubated with a suitable secondary antibody coupled to peroxidase. The blots were then developed by means of a chemiluminescent substrate (SuperSignal West Dura Extended Duration Substrate, Pierce, Brebiere, France).
Background: Immunoblotting shows a protein as a band on a membrane.

In test [7] the test system is TG2. Put plainly: immunolabelling of TG2 in ex vivo human skin biopsies. The settings on record: cultivated ex vivo skin biopsies, 0.5 ppm topically, 24 hours. In kind it is cell-based. As to the method: (§5) Biopsies of human skin were placed in culture at the air/liquid interface. A 1% solution of a mother solution containing 50 ppm of peptide SEQ ID NO: 5 was applied topically over 24 hours. For the labellings of TG1 and TG2, the skin biopsies were then enclosed in resin and frozen in nitrogen. Sections of approximately 6 μm were then made by cryostat. Immunolabelling was carried out by means of a specific antibody; anti-TG1 (Clinisciences BT-621, mouse monoclonal) or anti-TG2 (ABCAM® ab2972 antibody, rabbit polyclonal), then by means of a suitable secondary antibody coupled to a fluorescent marker. The skin sections were then examined under epifluorescence microscope (ECLIPSE® E 80i microscope by Nikon Corporation).

The test system of test [8] is TG1. Kind of test: immunolabelling of TG1 in ex vivo human skin biopsies. The settings on record: cultivated ex vivo skin biopsies, 0.5 ppm topically, 24 hours. In kind it is cell-based. As to the method:
as §5

The subject of test [9] is TG3. Kind of test: immunofluorescence labelling of TG3 in cultured normal human keratinocytes. The settings on record: 0.5 ppm, 24 hours. In kind it is cell-based. On the procedure: (§6) The objective of this study was to determine the influence of peptide SEQ ID NO: 5 on the expression of the different transglutaminases expressed in the human skin. To this end, a culture of normal human keratinocytes (NHKs) and a skin biopsy were subjected to specific labellings by immunofluorescence. Cultures of normal human fibroblasts were also labelled by immunofluorescence, specifically for TG2, which is expressed in these types of cell. Cultured NHKs were treated with a 1% solution of a mother solution containing 50 ppm of peptide SEQ ID NO: 5 for 24 hours. For immunolabelling by the anti-TG1 antibody, the cells were washed and fixed with 3.7% paraformaldehyde for 10 minutes. The cells were then incubated in the presence of a specific anti-TG1 antibody (Clinisciences BT-621, mouse monoclonal), then in the presence of a suitable secondary antibody coupled to a fluorescent marker. For the other immunolabellings, the cells were washed and fixed with cold methanol for 1 minute. The cells were then incubated in the presence of a specific antibody; anti-TG2 (ABCAM® ab2972 antibody, rabbit polyclonal), anti-TG3 (ABCAM® ab53236 antibody, mouse monoclonal) or anti-TG5 (ABCAM® ab26992 antibody, rabbit polyclonal). After mounting in a medium ad hoc, the slides were observed under epifluorescence microscope (ECLIPSE® E 80i microscope by Nikon Corporation).

For test [10], the system named is TG1. Put plainly: immunoblot of TG1 in cultured NHKs. Format: cell-based, human. The settings on record: 1% of 50 ppm mother solution, 24 hours. As to the method: as §4
In test [11] the test system is TG2. Kind of test: immunofluorescence labelling of TG2 in cultured normal human fibroblasts. The settings on record: 0.5 ppm, 24 hours. Format: cell-based. On the procedure: as §6, with “Corporation). […]” for “Corporation).”
In the next test the test system is transglutaminases. Put plainly: total enzyme activity of transglutaminases in normal human keratinocytes (fluorescein-labelled cadaverine substrate). In kind it is cell-based. Particulars: NHKs, 0.5 ppm. On the procedure: The objective of this study was to determine the influence of peptide SEQ ID NO: 5 on the total activity of transglutaminases in normal human keratinocytes (NHKs). To this end, the total enzyme activity of transglutaminases was assayed by spectrophotometry by means of an amino acid donor substrate, the amino acids being labelled with fluorescein.
NHKs were placed in black 96-well plates. After four days of culture, the NHKs were treated with a 1% solution of a mother solution containing 50 ppm of peptide SEQ ID NO: 5 for 24 or 48 hours (the active ingredient was added every 24 hours). A positive control was created by treating the cells with EGCG (epigallocatechin gallate, the main polyphenol ingredient in green tea) at a concentration of 20 μg/ml. The substrate used was cadaverine labelled with fluorescein (Invitrogen A10466) diluted to 100 μM in the culture medium. […] After two rinses in ethanol, then three rinses in the HBSS buffer, 100 μl of PBS were added to each well and a reading was taken by spectrophotometer at excitation wavelengths of 485 nm and emission wavelengths of 530 nm. Under these conditions, the transglutaminase activity was proportional to the amount of fluorescence emitted (expressed in fluorescence units), based on the total amount of proteins present in each well, previously assayed by the BCA technique.

Test [12] has as its system involucrin. Kind of test: immunoblot of involucrin in cultured NHKs. Particulars: 1% of 50 ppm mother solution, 24 hours. In kind it is cell-based, human. On the procedure: as §4
For test [13], the system named is TG2. Put plainly: immunofluorescence labelling of TG2 in cultured normal human keratinocytes. Format: cell-based. The settings on record: 0.5 ppm, 24 hours. As to the method:
as §6

A further test relates to pankeratins. Kind of test: immunolabelling of epidermal differentiation marker pankeratins. Format: cell-based, human. Particulars: 0.5 ppm, 24 hours; labelled in skin biopsies.
Source text: as §1
as §3, with “A suitable secondary antibody coupled to a fluorescent marker was then used. After mounting in a medium ad hoc, the slides were observed under epifluorescence microscope (ECLIPSE® E 80i microscope by Nikon Corporation).” left out

Test [14] has as its system TG3. Kind of test: immunolabelling of TG3 in ex vivo human skin biopsies. Particulars: cultivated ex vivo skin biopsies, 0.5 ppm topically, 24 hours. Format: cell-based. On the procedure: Biopsies of human skin were placed in culture at the air/liquid interface. A 1% solution of a mother solution containing 50 ppm of peptide SEQ ID NO: 5 was applied topically over 24 hours.
For the labellings of TG3, the skin biopsies were enclosed in paraffin and histological sections 3 μm thick were made. The slides were deparaffined, hydrated, then immunolabelled by an antibody directed against TG3 (ABCAM® ab53236 antibody, mouse monoclonal), then by a suitable secondary antibody coupled to a fluorescent marker. The skin sections were then examined under epifluorescence microscope (ECLIPSE® E 80i microscope by Nikon Corporation).

The subject of the next test is TG5. Kind of test: immunofluorescence labelling of TG5 in cultured normal human keratinocytes. Format: cell-based. The settings on record: 0.5 ppm, 24 hours. On the procedure:
as §6

Another test relates to human fibroblasts. Kind of test: Ibidi in vitro healing model of fibroblast regeneration. Particulars: 0.5 ppm and 1.5 ppm. Format: cell-based. As to the method: The Ibidi in vitro healing model was used (Biovalley, Marne la Vallée, France). Human fibroblasts were sown in two separate compartments of an Ibidi insert, which was then placed in a culture dish. On confluence, the insert was removed, thus creating an acellular zone measuring 400 μm wide between the two cellular lawns. The peptide diluted to 1% and 3% from a mother solution containing 50 ppm of peptide SEQ ID NO: 5 was then added to the culture medium, and the treatment was carried out for 48 hours with renewal of the active ingredient every 24 hours. Inspection by phase contrast microscopy (Olympus CK40 microscope, ×5, connected to an Olympus E-510 camera) was carried out at different times (0 to 48 hours) during the migration process.

Test [15] concerns TG1. Put plainly: immunofluorescence labelling of TG1 in cultured normal human keratinocytes. Format: cell-based. Particulars: 0.5 ppm, 24 hours. On the procedure:
as §6

Turning to SEQ ID NO: 5 (RRGQ), the “expression of TG1 as differentiation marker (immunofluorescence)” value with TG1 [1] was “stimulates the expression”. Moreover, the “expression of involucrin (immunofluorescence)” value in the test on involucrin [2] is reported as “stimulates the expression”. Further, the “epidermal differentiation, cornified layer morphology” value in the test with biopsies of human skin [3] was “thicker cornified layer”. The “expression of filaggrin (immunofluorescence)” value with filaggrin is “stimulates the expression”. In the test on biopsies of human skin [4], the “cells of the basal layer in histological sections of epidermis” value was “Greater density of the cells of the basal layer”. In addition, the “cornified layer in histological sections of epidermis” value with biopsies of human skin [4] was “neo-synthesis of the cornified layer, which appears thicker and better hydrated”. Also, the “expression of loricrin (immunofluorescence)” value in the test with loricrin [5] is recorded as “stimulates the expression”. The “increase in expression of loricrin (quantitative analysis of immunoblots)” value in the test on loricrin [6] is 16%. The “expression of TG2 (immunofluorescence)” value in the test with TG2 [7], in the test with TG2 [11] and with TG2 [13] was “stimulates the expression” throughout. For the same substance, the “expression of TG1 (immunofluorescence)” value in the test with TG1 [8] and in the test with TG1 [15] was “stimulates the expression” each time. The “expression of TG3 (immunofluorescence)” value in the test on TG3 [9] and in the test with TG3 [14] was “stimulates the expression” each time. Besides, in the test with TG1 [10], the “increase in expression of TG1 (quantitative analysis of immunoblots)” value is given as 20%. For the same substance, the “increase in total transglutaminase enzyme activity compared to the untreated control” value in the test on transglutaminases (after 24 hours) is given as 30%; in the test on transglutaminases (after 48 hours), 47.7%. For the same substance, the “increase in expression of involucrin (quantitative analysis of immunoblots)” value with involucrin [12] worked out at 30%. Further, in the test with pankeratins, the “expression of pankeratins (immunofluorescence)” value was “stimulates the expression”. Further, in the test with TG5, the “expression of TG5 (immunofluorescence)” value is given as “stimulates the expression”. In the test with human fibroblasts, the “dose dependence of the effect on fibroblast invasion” value is “dose-dependent”. The “invasion of the acellular zone with fibroblasts compared to control” value in the test with human fibroblasts (0 to 48 hours) is listed as “quicker”.
